Test results: PubChem BioAssay (NCI)
Values joined by “and” are separate entries in the source; they are usually repeats but may differ in a detail not shown here. Identical values can stand only once.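 Five compound concentrations were applied to cells in 96-well plates for 48 hours; endpoints were derived by simple linear interpolation of the resulting dose-response curve. At the GI50, growth is halved. TGI: concentration producing complete growth inhibition.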

Experiments:
Assay in all cases: NCI tumour cell line growth inhibition, 48 h
HOP-62 NSCLC = system: HOP-62 NSCLC
RXF 393 renal = system: RXF 393 renal
KM12 colon = system: KM12 colon
SR leukemia = system: SR leukemia
HL-60(TB) leukemia = system: HL-60(TB) leukemia
SNB-75 CNS = system: SNB-75 CNS
OVCAR-5 ovarian = system: OVCAR-5 ovarian
HCT-116 colon = system: HCT-116 colon
SF-268 CNS = system: SF-268 CNS
SN12C renal = system: SN12C renal

Compound	TGI (HOP-62 NSCLC) [µM]	TGI (RXF 393 renal)	TGI (KM12 colon) [µM]	TGI (SR leukemia) [µM]	TGI (HL-60(TB) leukemia) [µM]	TGI (SNB-75 CNS) [µM]	TGI (OVCAR-5 ovarian) [µM]	TGI (HCT-116 colon) [µM]	TGI (SF-268 CNS) [µM]	TGI (SN12C renal) [µM]	GI50 (HOP-62 NSCLC) [µM]	GI50 (RXF 393 renal) [µM]	GI50 (SR leukemia) [µM]	GI50 (HL-60(TB) leukemia) [µM]	GI50 (SNB-75 CNS) [µM]	GI50 (OVCAR-5 ovarian) [µM]	GI50 (HCT-116 colon) [µM]	GI50 (SF-268 CNS) [µM]	GI50 (SN12C renal) [µM]	GI50 (KM12 colon) [µM]
COc1ccc(C(=O)Nc2ccccc2C#N)cc1	> 100	> 100 µM	> 100	> 100	> 100	> 100	> 100	> 100	> 100	> 100										
C=C1C(=O)C23C(O)C1CCC2C12CO[C@]3(O)[C@@H](O)C1C(C)(C)CCC2O (stereo not given in full)	40.5	20.6 µM	31.7	> 100	> 100	29.3	34.5	15.5	28.8	27.9										
Cn1cc(-c2ccc3c(c2)ncn3-c2ccc(CC(=O)Nc3cc(C(C)(C)C)on3)cc2)cn1	29.4	0.908 µM	14.3	8.49	9.65	2.87	> 27.2	7.43	> 46.5	8.09	1.41	0.173	1.69	3.33	0.474	1.35	1.89	0.674	0.379	
NCCCNCCCNc1nc2ccccc2c2[nH]c3ccccc3c12	1.18	2.13 µM	3.93	1.17	1.3	1.29	1.61	1.87	1.72	1.28	0.0632	0.313	0.0059	0.0375	0.224	0.215	0.091	0.0264	0.0224	0.684
CCN(CC)c1ccc(/C=C/C2=[N+](C)c3ccccc3C2(C)C)cc1	16.3	16.5 µM	1.83	> 100	> 100	17.3	23.7	22.1	33.2	13.8	0.697	0.75	> 20.9	0.0906	0.34	1.01	0.181	0.627	0.342	0.28
S=c1nc(/C=C/c2ccc(Cl)c(Cl)c2)[nH][nH]1	> 100	> 100 µM	> 100	> 100	> 100	> 100	> 100	> 100	> 100	> 100			22.7		> 100					
CC1(C)CCC(CN2CCN(c3ccc(C(=O)NS(=O)(=O)c4ccc(NCC5CCOCC5)c([N+](=O)[O-])c4)c(Oc4cnc5[nH]ccc5c4)c3)CC2)=C(c2ccc(Cl)cc2)C1	15.8	3.48 µM	9.86	13	2.33	15.1	11.6	11.8	17.8	11.8	4.1	1.57	3.21	0.25	3.71	3.19	3.36	3.58	2.82	2.98
COc1ccc2c(c1)C(=O)/C(=C/c1ccc(OCC(=O)c3ccc(Cl)cc3)cc1)O2	> 100	42.4 µM	30.1	6.34	16.9	79.9	23.9	13	48.6	63.9	43.8	17.3	2.15	2.89	12.2	11.5	3.07	18.4	17.3	15.6
COc1cc2c(c(Br)c1N)-c1cc(Br)c(N)cc1C2=O	> 100	> 100 µM	> 100	> 100	> 100	> 100	> 100	> 100	> 100	> 100	10.1	> 100	0.0592	> 100	1.96	0.0894	3.49	7.37	6.33	> 85.1
CCN1CCC(O)(c2ccccc2)C(C(=O)c2ccccc2)C1 (stereo not given)	> 100	29.7 µM	> 100	60.3	46.8	> 100	37.5	31	> 31.6	> 31.6										
O=C(O)Cc1ccccc1	> 2000	> 1000 µM and 1940 µM	> 2000	> 1000	> 1000	> 2000	> 2000	> 1000	> 2000	> 2000	> 1000	> 1000		> 1000	> 1000	> 1000	> 1000	> 1000	> 1000	> 1000
CC[C@]12C=CCN3CC[C@]4(C(=C(C(=O)OC)C1)Nc1ccccc14)[C@@H]32	28.4	7.24 µM	14.5	30.7	11.5	7.93	21.2	10.9	19.3	18.2	9.78	2.51	2.55	3.18	2.15	6.55	3.16	4.6	3.62	3.65
COC(=O)Oc1nn(C(=O)OC)c(=O)c2ccccc12 (tested in a mixture with another compound)	> 100	> 100 µM	> 100	> 100	> 100	> 100	> 100	> 100	> 100	> 100										
C[CH2][Sn]([CH2]C)([O]C(=O)c1cc(OC)c(OC)c(OC)c1)[O][Sn]([CH2]C)([CH2]C)[O]C(=O)c1cc(OC)c(OC)c(OC)c1	> 100	27.9 µM	> 100	> 100	> 100	> 88.7	> 100	> 100	44.1	99.4	> 100	12.4	36.3	35.1	28.6	> 100	68.2	20.6	44	> 100
